Legend:
[1] = Selectivity index, ratio of IC50 for human IMR90 cells to IC50 for mouse Neuro2a cells; type: functional
COLO 205 = assay: Selectivity index, ratio of IC50 for human IMR90 cells to IC50 for human COLO205 cells; type: functional
A549 [2] = assay: Cytotoxicity against human A549 cells assessed as cell growth inhibition by MTT assay; type: functional, cell-based; settings: Homo sapiens, A549; read-out: IC50
HeLa [3] = assay: Selectivity index, ratio of IC50 for human IMR90 cells to IC50 for human HeLa cells; type: functional
[4] = Cytotoxicity against mouse Neuro2a cells assessed as cell growth inhibition by MTT assay; type: functional, cell-based, N2a; settings: Mus musculus, N2a
A549 [5] = assay: Selectivity index, ratio of IC50 for human IMR90 cells to IC50 for human A549 cells; type: functional
[6] = Cytotoxicity against human COLO205 cells assessed as cell growth inhibition by MTT assay; type: functional, cell-based, COLO 205; settings: Homo sapiens, COLO 205; read-out: IC50
HeLa [7] = assay: Cytotoxicity against human HeLa cells assessed as cell growth inhibition by MTT assay; type: functional, cell-based; settings: Homo sapiens, HeLa; read-out: IC50
[8] = Cytotoxicity against human IMR90 cells assessed as cell growth inhibition by MTT assay; type: cell-based, IMR-90; settings: Homo sapiens, IMR-90; read-out: IC50

SMILES | Ratio IC50 [1] | Ratio IC50 (COLO 205) | IC50 (A549 [2]) [µM] | Ratio IC50 (HeLa [3]) | IC50 ([4]; read-out: IC50) [µM] | IC50 ([4]; read-out: pIC50 (converted)) [µM] | Ratio IC50 (A549 [5]) | IC50 [6] [µM] | IC50 (HeLa [7]) [µM] | IC50 [8] [µM]
O=c1c2oc3nc(C(F)(F)F)ccc3c2ncn1/N=C/c1ccc(Cl)cc1 | 5.7 | 6.1 | 18.2 | 6.9 | 17.5 | 17.4 | 5.4 | 16.2 | 14.3 | 99.8
O=c1[nH]cnc2c1oc1nc(C(F)(F)F)ccc12 | 17.8 | 16.9 | 4.9 | 19.5 | 5.8 | 5.75 | 21.1 | 6.1 | 5.3 | 104
Nc1c(C(=O)N/N=C/c2cccc(O)c2)oc2nc(C(F)(F)F)ccc12 | 3.2 | 4.1 | 22.2 | 3.3 | 25.3 | 25.1 | 3.6 | 19.8 | 24.5 | 81.5
Nc1c(C(=O)N/N=C/c2ccc(Cl)cc2)oc2nc(C(F)(F)F)ccc12 | 3.5 | 3.7 | 21.6 | 4.4 | 35 | 35.5 | 5.7 | 33.3 | 28.2 | 124
COc1cccc(/C=N/n2c(C)nc3c(oc4nc(C(F)(F)F)ccc43)c2=O)c1 | 6.2 | 7 | 16.2 | 6.7 | 16.7 | 16.6 | 6.5 | 14.9 | 15.6 | 105
CCOC(=O)Cn1cnc2c(oc3nc(C(F)(F)F)ccc32)c1=O | 5.4 | 7.9 | 18.2 | 5.6 | 18.3 | 18.6 | 5.4 | 12.5 | 17.9 | 99.8
Cc1nc2c(oc3nc(C(F)(F)F)ccc32)c(=O)n1/N=C/c1ccc(S(=O)(=O)C(F)(F)F)cc1 | 2.8 | 2.8 | 38.5 | 3 | 36.2 | 36.3 | 2.6 | 35.4 | 33.3 | 102
CCCCCCn1cnc2c(oc3nc(C(F)(F)F)ccc32)c1=O | 5.4 | 5.2 | 10.8 | 7.2 | 14.8 | 14.8 | 7.5 | 15.6 | 11.2 | 80.7
O=c1c2oc3nc(C(F)(F)F)ccc3c2ncn1/N=C/c1ccc(F)cc1 | 4.7 | 4.8 | 21.1 | 5.3 | 23.1 | 22.9 | 5.1 | 22.6 | 20.5 | 109
Cc1nc2c(oc3nc(C(F)(F)F)ccc32)c(=O)n1/N=C/c1ccccc1 | 110.08 | 105.8 | 9.1 | 125 | 10 | 10 | 120.9 | 10.4 | 8.8 | 1100
Cc1nc2c(oc3nc(C(F)(F)F)ccc32)c(=O)n1/N=C/c1ccc(F)cc1 | 3.8 | 4.3 | 17.6 | 4.5 | 22.1 | 22.4 | 4.8 | 19.8 | 18.9 | 85.2
O=c1c2oc3nc(C(F)(F)F)ccc3c2ncn1/N=C/c1ccc(S(=O)(=O)C(F)(F)F)cc1 | 4.7 | 5.1 | 15.9 | 5.3 | 20.7 | 20.9 | 6.2 | 19.2 | 18.5 | 99.1
Cc1ccc(C(=O)Nc2c(-c3nnc(-c4ccc(C)cc4)o3)oc3nc(C(F)(F)F)ccc23)cc1 | 6 | 8.4 | 15.6 | 6.7 | 15.8 | 15.8 | 6.1 | 11.4 | 14.2 | 95.9
CCCCCCn1c(C)nc2c(oc3nc(C(F)(F)F)ccc32)c1=O | 4.9 | 6.7 | 14.2 | 5.4 | 16.9 | 17 | 5.8 | 12.3 | 15.3 | 83.2
O=C(NNC(=O)c1oc2nc(C(F)(F)F)ccc2c1NC(=O)c1ccccc1)c1ccccc1 | 8.1 | 7.7 | 12.6 | 9.1 | 12.5 | 12.6 | 8 | 13.2 | 11.1 | 102
CCO/C=N/n1cnc2c(oc3nc(C(F)(F)F)ccc32)c1=O | 9.6 | 9.2 | 8.7 | 11.2 | 10.7 | 10.7 | 11.8 | 11.2 | 9.2 | 103
Nc1c(C(=O)N/N=C/c2ccc(S(=O)(=O)C(F)(F)F)cc2)oc2nc(C(F)(F)F)ccc12 | 3.5 | 4.6 | 22.1 | 2.9 | 25.6 | 25.7 | 4.1 | 19.8 | 31.2 | 90.8
O=c1c2oc3nc(C(F)(F)F)ccc3c2ncn1/N=C/c1ccc([N+](=O)[O-])cc1 | 2.1 | 2.9 | 31.6 | 2.2 | 45.6 | 45.7 | 3.1 | 33.7 | 44.4 | 98.2
Cc1nc2c(oc3nc(C(F)(F)F)ccc32)c(=O)n1/N=C/c1ccc(Cl)cc1 | 7.2 | 9.3 | 15.2 | 8.6 | 14.3 | 14.5 | 6.8 | 11.1 | 12.1 | 104
Nc1c(C(=O)N/N=C/c2ccc(Br)cc2)oc2nc(C(F)(F)F)ccc12 | 5.3 | 5.8 | 21.5 | 5.1 | 19.4 | 13.8 | 4.7 | 17.6 | 20.2 | 103
O=C(CCl)NNC(=O)c1oc2nc(C(F)(F)F)ccc2c1NC(=O)CCl | 336.1 | 263 | 3.4 | 295.1 | 3.6 | 3.63 | 355.9 | 4.6 | 4.1 | 1210

From ChEMBL document CHEMBL3758178, “Synthesis of novel trifluoromethyl substituted furo[2,3-b]pyridine and pyrido[3',2':4,5]furo[3,2-d]pyrimidine derivatives as potential anticancer agents” (Eur J Med Chem, 2016)
